Data taken from patent US20170108514A1, “DIAGNOSIS OF MULTIPLE SCLEROSIS IN HUMAN AND ANIMAL SUBJECTS” (THE REGENTS OF THE UNIVERSITY OF COLORADO, a body corporate, priority 2014, published 2017).
Where a name gives a salt, the structure may show the parent alone.

Experiments:
[1] = tested on: Th40 cells from MS subjects; experiment: Antigen assay: proliferation of CFSE-labeled T cells (Th40) exposed to autologous APC/peptide antigen for 7 days; assay type: cell-based, human
[2] = tested on: multiple sclerosis patients; conditions: human, in vivo; cited from earlier work
[3] = tested on: multiple sclerosis patients; conditions: cited from earlier work; for relapses / attacks: clinical reports; for relapses / attacks / disease / disability progression / MRI / MRI lesions: MS patients
[4] = DR2 and DR6 co-expressed, antigen 5 μg/ml
[5] = DR4 expressing MS subjects, open second allele, antigen 5 μg/ml
[6] = DR6 a fixed allele, any haplotype at other allele, antigen 5 μg/ml
[7] = DR6 at both alleles, antigen 5 μg/ml
[8] = DR4 co-expressed with DR2, antigen 5 μg/ml
[9] = DR4 co-expressed with DR6, antigen 5 μg/ml
[10] = RRMS subjects, DR2 at one allele, other allele any haplotype, antigen 5 μg/ml

LVERGNHSKIVAGVLGLI [PLP103, MS associated peptide antigen from PLP]
antigen response by Th40 cells [1, 4]: significantly greater than the remaining antigens tested
antigen response by Th40 cells [1, 5]: equally
antigen response by Th40 cells [1, 6]: best response
antigen response by Th40 cells [1, 7]: best Th40 response

ADPGSRPHLIRLFSRDAPGR [MBP83, MS associated peptide antigen from MBP]
antigen response by Th40 cells [1, 8]: diminished
antigen response by Th40 cells [1, 9]: increased
antigen response by Th40 cells [1, 6]: best response
antigen response by Th40 cells [1, 10]: least reactive

alemtuzumab [Lemtrada]
safety in patients [2]: significantly increases the risk for opportunistic infections

O=C1c2c(O)ccc(O)c2C(=O)c2c(NCCNCCO)ccc(NCCNCCO)c21 [Novantrone, mitoxantrone]
relapses / attacks [3]: lessens relapses
disease / disability progression ([3]; reports): slows progression

C/C(O)=C(\C#N)C(=O)Nc1ccc(C(F)(F)F)cc1 [Aubagio, teriflunomide]
safety in patients [2]: moderate potential for hepatotoxicity

AQGTLSKIFKLGGRDSRSGSPMARR [MBP146, MS associated peptide antigen from MBP]
antigen response by Th40 cells [1, 4]: no response
antigen response by Th40 cells [1, 7]: worst response antigen

Glatiramer acetate [Copaxone]
relapses / attacks [3]: decreasing frequency and severity of attacks
MRI / MRI lesions ([3]; reports): no reports of changes in MRI lesions

MEVGWYRPPFSRVVHLYRNGK [MOG35, MS associated peptide antigen from MOG]
antigen response by Th40 cells [1, 4]: prominent response antigen
antigen response by Th40 cells [1, 5]: very little response

COC(=O)/C=C/C(=O)OC [Tecfidera, dimethyl fumarate]
relapses / attacks [3]: some reduction in the average annual number of relapses
disease / disability progression ([3]; reports): not reduced significantly

CCCCCCCCc1ccc(CCC(N)(CO)CO)cc1 [Gilenya, fingolimod]
safety in patients [2]: extremely immune-suppressive

Natalizumab [Tysabri]
MRI / MRI lesions ([3]; reports): some positive effects on MRI
disease / disability progression ([3]; reports): slow progression
reduction in relapse rate ([3]; reports, MS subjects, IV infusion once every four weeks): two-thirds

FFRDHSYQE [MOG99, MS associated peptide antigen from MOG]
antigen response by Th40 cells [1, 4]: significantly less response
antigen response by Th40 cells [1, 8]: remains high
antigen response by Th40 cells [1, 9]: unaffected
antigen response by Th40 cells [1, 5]: responded
antigen response by Th40 cells [1, 10]: best antigen response
